{
  "source": "patent US11879012B2",
  "about": "“Method of modulating cell proliferation” (METRO NORTH HOSPITAL AND HEALTH SERVICE, priority 2018, dated 2024)",
  "system": "corneal-limbal epithelial cells",
  "assay": "MTT conversion / proliferation of primary corneal-limbal epithelial cells",
  "format": "cell-based, human",
  "conditions": "40 μM Y27632 alone; FIG. 5D",
  "description": "Cultures of non-transformed human corneal epithelial cells were established from either enzymatically-dissociated sample of corneal-scleral tissue or from pieces of intact corneal limbus seeded into culture dishes (i.e., explant method). In either case, corneal tissue from cadaveric donors was used. Each tissue sample was acquired with consent and ethics approval our HREC Approval No. 0800000807) in the form of either surgical cut-offs or intact corneas that had been rejected by the eye bank (e.g., poor endothelial cell density).\nFor dissociated cultures, washed tissue samples were cut into quarters before being incubated for 1 hour at 37° C. in 0.25% (w/v) Dispase solution (Life Technologies). Epithelial tissue was subsequently harvested from the limbus and peripheral cornea by scraping with a pipette tip, then dissociated by digestion in 0.05% Trypsin/0.02% EDTA (Sigma) for 5 minutes at 37° C. The resulting cell suspension was washed and resuspended in complete culture medium. […]\nTo initiate cultures from whole tissue, each well of a 6-well culture plate (approximately 6×10 cm^2) was initially filled with 2 mL, of 100% FBS and incubated for at least 30 minutes at 37° C. […] Over subsequent days, each p0 culture was routinely monitored for evidence of epithelial outgrowth until a confluent sheet measuring approximately 2-3 cm^2 had been achieved (approximately 1-2 weeks). […]",
  "data": [
    {"smiles": "C[C@@H](N)[C@H]1CC[C@H](C(=O)Nc2ccncc2)CC1", "note": "[Y27632]", "values": [
      {"measurement": "MTT conversion (cell proliferation)", "result": "dose-dependent increase in MTT conversion"}
    ]}
  ]
}
